# Measurements: patent publication US4500544A, “Ascochlorin derivatives, and pharmaceutical composition containing the same” (Chugai Seiyaku Kabushiki Kaisha, priority 1981, dated 1985)
# Tests used:
# [1] = background; cited from earlier work
# [2] = systemic or oral administration; cited from earlier work
# [3] = background; cited from earlier work; remark: listed apart in the source
# [4] = test system: circulatory system of mammals; conditions: background; cited from earlier work
# [5] = plasma glucose and cholesterol in normal mice fed the compounds (Example 19); assay type: in vivo, ddY male mice; conditions: 0.1% in diet, one week, n=10
# Method: Five-week-old ddY male mice (n=10) were given for one week a diet (CE-2 from Nippon Crea Co., Ltd.) containing 0.1% of the sample compounds of the present invention indicated in Table 1. Blood was then withdrawn from the heart and the glucose and cholesterol levels in plasma were measured.
# [6] = test system: adipocytes of hereditary obese diabetic mouse, strain C 57BL/KsJ (db^+ /db^+); assay: adipocytes from orally treated hereditary obese diabetic mice; assay type: in vivo; conditions: oral, 1 week
# Text: The hereditary obese diabetic mouse, strain C 57BL/KsJ (db^+ /db^+), is an excellent model of human type II diabetes mellitus.
# [7] = test system: adipocytes of streptozotocin-diabetic rats; assay: adipocytes from orally treated streptozotocin-diabetic rats; assay type: in vivo; conditions: oral once daily for 2 weeks
# Method: The mechanism of action of the compounds of the present invention was evaluated using adipocytes derived from diabetic animals which orally received the compounds for a given period.
# Ehrlich ascites tumor = assay: life span of mice with Ehrlich ascites tumor (Example 22); assay type: in vivo, ddY male mice; conditions: 2 mg i.p. once a day for 7 days
# Method: 10^6 Cells of Ehrlich ascites tumor were transplanted in five-week-old ddY male mice and from the 24th hour onward, they were injected intraperitoneally the compounds indicated in Table 4 of the present invention once a day for 7 consecutive days. Each injection contained 2 mg of the test compounds. The efficacy of the compounds is indicated in Table 4 in terms of their life span.
# L-1210 leukemia = assay: prevention of L-1210 leukemia by pretreatment one week before transplantation (Example 23); assay type: in vivo, BDF1 female mice; conditions: 2 mg i.p. one week before 10^2 cells
# Method: Four-week-old BDF1 female mice were injected intraperitoneally with suspensions of 2 mg of 4-O-hydroxycarbonylmethyl ester of ascochlorin in 1% tragacanth gum. A control group was injected only with 1% tragacanth gum. One week later, 10^2 cells of L-1210 leukemia were transplanted in the mice.
# [8] = test system: hepatic lipogenesis in streptozotocin-diabetic mice; assay: hepatic lipogenesis in streptozotocin-diabetic mice; assay type: in vivo; conditions: oral, a week; untreated diabetic controls one half of normal
# Text: Potentiation of insulin action by the compounds of the present invention is corroborated by restoration of hepatic lipogenesis in streptozotocin-diabetic mice. Streptozotocin diabetic mice greatly deteriolate hepatic lipogenesis due to insulin deficiency.
# [9] = test system: Hereditary obese diabetic mice C 57BL/Ksj (db^+ /db^+); assay: hereditary obese diabetic mice, diet with 0.1% compound (Example 20); assay type: in vivo, mouse
# Method: The amounts of the diet taken drinking water, urine volume and urine glucose excreted were measured daily. The results are indicated in Table 2 in terms of mean value±standard error.
# [10] = test system: streptozotocin diabetic ddY mice; assay: streptozotocin-diabetic mice, plasma glucose and lipid (Example 26); assay type: in vivo, ddY male mice
# Method: Five-week-old ddY male mice […] were injected intraperitoneally 150 mg/kg of streptozotocin, and after 24 hours onward, they were given for one week a diet (CE-2 from Nippon Crea Co., Ltd.) containing 0.05% of 4-O-nicotinoyl ascochlorin. A control group was given only CE-2. On the 7th day, the animals were sacrificed and the levels of glucose and lipid in their plasma were measured.
# [11] = serum lipid and glucose in normal mice fed the compounds (Example 25); assay type: in vivo, ddY male mice
# Method: Five-week-old ddY male mice were given for one week a diet (CE-2 from Nippon Crea Co., Ltd.) containing 0.05% of the compounds of the present invention indicated in Table 7. On the 7th day, the mice were sacrificed and the levels of lipid and glucose in their serum were measured.
# [12] = test system: Hereditary obese diabetic mice C57BL/Ksj (db^+ /db^+); assay: hereditary obese diabetic mice, plasma glucose and lipid (Example 27); assay type: in vivo, mouse
# Method: Hereditary obese diabetic mice C57BL/Ksj (db^+ /db^+) were given for one week a diet (CE-2 from Nippon Crea Co., Ltd.) containing 0.05% of 4-O-nicotinoyl ascochlorin. A control group of the same age was given only CE-2. One week later, the animals were sacrificed and the levels of plasma glucose and lipid were measured.
# [13] = test system: Hereditary obese diabetic mice C 57BL/Ksj (db^+ /db^+); assay: hereditary obese diabetic mice, diet with 0.05% compound, intake and urine (Example 24); assay type: in vivo, mouse
# Method: Hereditary obese diabetic mice C 57BL/Ksj (db^+ /db^+), 12 weeks old, were fed commercial pellet diet (CE-2 from Nippon Crea Co., Ltd.) for a week and they were treated with CE-2 pellet containing 0.05% of 4-O-nicotinoylascochlorin for a week. The daily amounts of the diet intake, drinking water, urine volume and urine glucose excreted were measured before and during the treatment.
# [14] = vs one week prior to administration
compound,measurement,setting,value
COc1c(Cl)c(C)c(C=O)c(O)c1C/C=C(C)/C=C/C1(C)C(C)CCC(=O)C1C (centres unmarked),water solubility,[1],low in water solubility
same,level in blood,[2],not easily increased even if it is administered systemically or orally
CC(/C=C/[C@@]1(C)[C@H](C)CCC(=O)[C@@H]1C)=C\Cc1c(O)c(Cl)c(C)c(C=O)c1O [Ascochlorin],anti-viral and anti-tumor effects,[3],high anti-viral and anti-tumor effects
same,toxicity to the circulatory system,[4],highly toxic to the circulatory system of mammals
"CC(/C=C/C1(C)C(C)CCC(=O)C1C)=C\Cc1c(O)c(C=O)c(C)c(Cl)c1OCC(=O)O (centres unmarked) [Example 4, 4-O-carboxymethyl ascochlorin]",total cholesterol in plasma,[5]; control 135.9 ± 4.8,107.9 ± 4.5 mg/dL
same,plasma glucose,[5]; control 271.6 ± 0.4,217.6 ± 12.2 mg/dL
same,"2-deoxyglucose uptake, and conversion of glucose to carbon dioxide and lipid",[6],increased
same,increment in ^125 I-insulin binding to adipocytes,[6]; above age-matched untreated diabetic controls,1.5-3.0 fold
same,"2-deoxyglucose uptake, and conversion of glucose to carbon dioxide and lipids in adipocytes",[7],greatly increased
same,^125 I-insulin binding to adipocytes,[7]; vs normal and diabetic control,increased ^125 I-insulin binding to adipocytes above normal and diabetic control levels
same,Days survived,"Ehrlich ascites tumor; n=8, control 15.5 ± 2.12",> 25.3 ± 4.65 days
same,T/0 (%),Ehrlich ascites tumor; control 100,163%
same,Survived 50 days or more,"L-1210 leukemia; control 0, P < 0.01",7
same,Died,L-1210 leukemia; control 20 died,13
same,incorporation of acetate into hepatic total fatty acid and triglyceride,[8],restored to normal control levels
same,urine volume,"[9]; 0.1% in diet, one week administration, prior 5.95 ± 0.20, n=10",2.07 ± 0.23 ml/mouse/day
same,diet intake,"[9]; 0.1% in diet, one week administration, prior 6.35 ± 0.13, n=10",6.37 ± 0.28 g/mouse/day
same,drinking water,"[9]; 0.1% in diet, one week administration, prior 14.7 ± 0.3, n=10",10.4 ± 0.3 ml/mouse/day
same,urine glucose concentration,"[9]; 0.1% in diet, one week administration, prior 97.4 ± 3.4, n=10",52.9 ± 5.52 mg/mL
same,urine glucose,"[9]; 0.1% in diet, one week administration, prior 579.5 ± 21.1, n=10",106.8 ± 19.5 mg/mouse/day
same,"drinking water, change",[9]; [14],-29.3%
same,"urine glucose concentration, change",[9]; [14],-45.7%
same,"urine glucose, change",[9]; [14],-81.5%
same,"urine volume, change",[9]; [14],-65.2%
"CC(/C=C/C1(C)C(C)CCC(=O)C1C)=C\Cc1c(O)c(C=O)c(C)c(Cl)c1OC(=O)c1cccnc1 (centres unmarked) [Example 11, 4-O-nicotinoyl ascochlorin]",blood glucose and plasma triglyceride (in words),"[10]; 0.05% in diet, one week",could inhibit significantly the increase in the levels of blood glucose and triglyceride in plasma
same,free aliphatic acid in plasma,"[10]; 0.05% in diet, one week, control 22.4 ± 1.4",20.5 ± 1.2 mg/dL
same,plasma glucose,"[10]; 0.05% in diet, one week, control 453.6 ± 38.0",351.3 ± 23.0 mg/dL
same,"free aliphatic acid in plasma, change",[10]; vs control,-8%
same,"plasma glucose, change",[10]; vs control,-23%
same,lipid level in serum (in words),"[11]; 0.05% in diet, one week",could also reduce the lipid level in serum
same,free fatty acid in serum,"[11]; 0.05% in diet, one week, n=8, control 25.3 ± 1.62",21.2 ± 0.62 mg/dL
same,neutral fat in serum,"[11]; 0.05% in diet, one week, n=8, control 134.7 ± 8.6",102.0 ± 10.5 mg/dL
same,total cholesterol in serum,"[11]; 0.05% in diet, one week, n=8, control 135.9 ± 4.8",106.7 ± 5.5 mg/dL
same,serum glucose,"[11]; 0.05% in diet, one week, n=8, control 293.0 ± 13.3",228.0 ± 16.8 mg/dL
same,"free fatty acid in serum, change",[11]; vs control,-16.3%
same,"neutral fat in serum, change",[11]; vs control,-24.3%
same,"serum glucose, change",[11]; vs control,-22.2%
same,"total cholesterol in serum, change",[11]; vs control,-21.5%
same,incorporation of acetate into hepatic total fatty acid and triglyceride,[8],restored to normal control levels
same,plasma lipid and glucose levels (in words),"[12]; 0.05% in diet, one week",could reduce significantly the high plasma lipid and glucose levels
same,plasma free fatty acid,"[12]; 0.05% in diet, one week, n=7, control 27.7 ± 1.8",26.1 ± 1.4 mg/dL
same,plasma triglyceride,"[12]; 0.05% in diet, one week, n=7, control 170.7 ± 16.3",115.5 ± 14.9 mg/dL
same,immunoreactive insulin in plasma,"[12]; 0.05% in diet, one week, n=7, control 236.6 ± 91.0",257.3 ± 91.3 μU/ml
same,plasma glucose,"[12]; 0.05% in diet, one week, n=7, control 453.6 ± 38.0",351.3 ± 23.0 mg/dL
same,"plasma glucose, change",[12]; vs control,-23%
same,"plasma triglyceride, change",[12]; vs control,-32.3%
same,"polydipsia, polyuria and urine glucose excretion (in words)","[13]; 0.05% in diet, one week",improved polydipsis and polyurea and inhibited excretion of urine gluclose
same,urine volume,"[13]; 0.05% in diet, one week, n=5, control period 8.60 ± 0.35",5.20 ± 0.36 ml/mouse/day
same,drinking water,"[13]; 0.05% in diet, one week, n=5, control period 14.55 ± 0.33",11.16 ± 0.52 ml/mouse/day
same,urine glucose concentration,"[13]; 0.05% in diet, one week, n=5, control period 130.6 ± 5.7",106.3 ± 2.9 mg/mL
same,urine glucose,"[13]; 0.05% in diet, one week, n=5, control period 1129 ± 96",554 ± 43 mg/mouse/day
same,diet intake,"[13]; 0.05% in diet, treatment period one week, n=5, control period 4.85 ± 0.06, NS",4.26 ± 0.39 g/mouse/day
same,"drinking water, change",[13]; vs control period,-23.30%
same,"urine glucose concentration, change",[13]; vs control period,-18.6%
same,"urine glucose, change",[13]; vs control period,-50.9%
same,"urine volume, change",[13]; vs control period,-39.5%
